Patent publication US8415469B2, “Compounds and methods for kinase modulation, and indications therefor” (Plexxikon Inc., priority 2005, dated 2013)

Legend:
Type in all cases: biochemical
[1] = target: T1, Fms (Homo sapiens, UniProt P07333); assay: AlphaScreen kinase assay, Fms; details: read-out: IC50, activity toward kinase Fms
T1 construct: purchased Upstate Biotechnology

[2] = target: T2, Kit (Homo sapiens, UniProt P10721); assay: AlphaScreen kinase assay, Kit; details: read-out: IC50, activity toward kinase Kit
T2 construct: P1332.N6 BI PTP KIT M552-K948-X COD; His6 (N); made in house; host or cells: E. coli (PTP1B co-expressed)

[3] = target: T3, Ret (Homo sapiens, UniProt P07949); assay: AlphaScreen kinase assay, Ret; details: read-out: IC50, activity toward kinase Ret
T3 construct: P1378.pET-SF BI-PTP RET H661-R1012 HIS; made in house
T3 sequence (P07949 with tags, fused parts or gaps): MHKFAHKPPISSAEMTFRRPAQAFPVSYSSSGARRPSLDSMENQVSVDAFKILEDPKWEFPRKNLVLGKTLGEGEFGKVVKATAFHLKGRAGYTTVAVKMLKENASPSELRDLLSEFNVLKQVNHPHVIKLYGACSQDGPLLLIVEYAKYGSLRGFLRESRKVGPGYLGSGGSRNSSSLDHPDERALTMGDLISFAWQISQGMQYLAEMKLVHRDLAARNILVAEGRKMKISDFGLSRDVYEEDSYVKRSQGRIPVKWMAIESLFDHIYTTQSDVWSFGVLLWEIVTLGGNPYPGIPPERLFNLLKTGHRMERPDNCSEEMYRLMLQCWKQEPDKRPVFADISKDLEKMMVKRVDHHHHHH

[4] = target: T4, FGFR1 (Homo sapiens, UniProt P11362, C488A/C584S); assay: AlphaScreen kinase assay, FGFR1; details: read-out: IC50, activity toward kinase FGFR
T4 construct: P1351.pET N6 BI-PTP FGFR A458-E765-X C488A, C584S; made in house; host or cells: E. coli (PTP1B co-expressed)

[5] = target: T5, MAP2K1 (Homo sapiens, UniProt Q02750); assay: Z'-Lyte FRET kinase assay (Invitrogen), MAP2K1; details: read-out: IC50, activity toward kinase MAP2K1
T5 construct: purchased Invitrogen (assay run by Invitrogen)

[6] = target: MAP4K4 (Homo sapiens, UniProt O95819); assay: AlphaScreen kinase assay, MAP4K4; details: read-out: IC50, activity toward kinase MAP4K4
[7] = target: T6, Src (Homo sapiens, UniProt P12931); assay: AlphaScreen kinase assay, Src; details: read-out: IC50, activity toward kinase Src
T6 construct: P1144. pET-N6 BI-PTP SRC V86-L536-X; made in house

[8] = target: T7, Yes (Homo sapiens, UniProt P07947); assay: Z'-Lyte FRET kinase assay (Invitrogen), Yes; details: read-out: IC50, activity toward kinase Yes
T7 construct: purchased Invitrogen (Carlsbad, Calif.), screening service
Method in brief: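 Inhibition was inferred from protease cleavage of non-phosphorylated peptide, measured as a coumarin/fluorescein ratio. Kinase reactions used 10 μM ATP for 1 h at room temperature.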

[9] = target: T8, Btk (Homo sapiens, UniProt Q06187); assay: Z'-Lyte FRET kinase assay (Invitrogen), Btk; details: read-out: IC50, activity toward kinase Btk
T8 construct: purchased Invitrogen (assay run by Invitrogen)

[10] = target: T9, Kdr (Homo sapiens, UniProt P35968); assay: Z'-Lyte FRET kinase assay (Invitrogen), Kdr; details: read-out: IC50, activity toward kinase Kdr
T9 construct: purchased Invitrogen (assay run by Invitrogen)

[11] = target: T10, B-Raf V600E (Homo sapiens, UniProt P15056, V600E); assay: AlphaScreen kinase assay, B-Raf V600E; details: read-out: IC50, activity toward kinase B-Raf V600E
T10 construct: P4254. pFastBacBD-CDC37 BRAF D437-K722-X, V600E; His6 with pFastBac HT leader (TEV site) (N); made in house; host or cells: Sf9 (baculovirus; chaperone CDC37 co-expressed)

[12] = target: T11, Flt1 (Homo sapiens, UniProt P17948); assay: AlphaScreen kinase assay, Flt1; details: read-out: IC50, activity toward kinase Flt1
T11 construct: P1826.pETN6 BI-PTP FLT1 M799-D1165-X WT; His6 (N); made in house; host or cells: E. coli (PTP1B co-expressed)
T11 sequence (P17948 with tags, fused parts or gaps): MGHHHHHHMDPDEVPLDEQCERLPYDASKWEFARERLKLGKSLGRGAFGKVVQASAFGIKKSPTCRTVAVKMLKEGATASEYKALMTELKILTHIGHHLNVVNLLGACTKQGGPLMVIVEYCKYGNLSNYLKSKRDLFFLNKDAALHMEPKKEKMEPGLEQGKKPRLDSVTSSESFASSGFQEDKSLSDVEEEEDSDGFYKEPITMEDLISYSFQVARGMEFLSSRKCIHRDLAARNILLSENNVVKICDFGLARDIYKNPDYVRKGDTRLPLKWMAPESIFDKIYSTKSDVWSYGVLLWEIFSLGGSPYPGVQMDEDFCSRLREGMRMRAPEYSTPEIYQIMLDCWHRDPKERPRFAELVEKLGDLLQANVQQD

[13] = target: T12, Pyk2 (Homo sapiens, UniProt Q14289); assay: AlphaScreen kinase assay, Pyk2; details: read-out: IC50, activity toward kinase Pyk2
T12 construct: purchased Upstate Biotechnology

[14] = target: T13, Abl (Homo sapiens, UniProt P00519); assay: AlphaScreen kinase assay, Abl; details: read-out: activity toward kinase Abl, IC50
T13 construct: P1121. pET-SPEC BI-PTP Abl G227-V515-X; His6 (N); made in house; host or cells: E. coli (PTP1B co-expressed)
T13 sequence (P00519 with tags, fused parts or gaps): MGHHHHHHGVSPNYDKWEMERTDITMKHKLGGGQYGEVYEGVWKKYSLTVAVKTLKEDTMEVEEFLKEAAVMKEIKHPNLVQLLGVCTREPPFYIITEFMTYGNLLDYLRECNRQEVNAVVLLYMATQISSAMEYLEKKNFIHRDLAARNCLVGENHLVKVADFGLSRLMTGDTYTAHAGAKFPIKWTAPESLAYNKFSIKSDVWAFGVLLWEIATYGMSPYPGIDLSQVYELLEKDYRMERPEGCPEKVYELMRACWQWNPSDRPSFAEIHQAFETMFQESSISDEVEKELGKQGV
Method in brief: (§1)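 Inhibition reads as diminished acceptor emission, since unphosphorylated peptide fails to bridge antibody acceptor beads and streptavidin donor beads. Titration: eight points, 1:3 steps, stocks at 20 mM in DMSO.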

[15] = target: T14, Flt4 (Homo sapiens, UniProt P35916); assay: AlphaScreen kinase assay, Flt4; details: read-out: IC50, activity toward kinase Flt4
T14 construct: purchased ProQinase GmbH (Freiburg, Germany)
Source text: AlphaScreen assay was used to screen additional kinases. The assay is similarly dependent on the phosphorylation of a peptide substrate. In this assay, an antibody that recognizes phosphorylated substrate is bound to an acceptor bead. The peptide substrate is attached to biotin, which binds to a donor head that contains streptavidin. Thus phosphorylated substrate is bound by antibody and streptavidin, bringing the donor and acceptor heads into close proximity when kinase is not inhibited. The donor produces singlet oxygen which results in emission from the acceptor when they are in close proximity. Conversely, when kinase is inhibited, the donor and acceptor beads are not associated and the emission from the acceptor is reduced.
AlphaScreen assays were done using compounds dissolved in DMSO to a concentration of 20 mM. The compounds were diluted accordingly to the desired final concentrations in each sample well, using 1:3 serial dilution for a total of 8 concentration points.

[16] = target: T15, Jnk2 (Homo sapiens, UniProt P45984); assay: AlphaScreen kinase assay, Jnk2; details: read-out: IC50, activity toward kinase Jnk2
T15 construct: purchased Roche Protein Expression Group (Indianapolis, IN)
Method in brief: as §1

[17] = target: T16, Jnk3 (Homo sapiens, UniProt P53779); assay: AlphaScreen kinase assay, Jnk3; details: read-out: IC50, activity toward kinase Jnk3
T16 construct: purchased Upstate Biotechnology

[18] = target: T17, Jnk1 (Homo sapiens, UniProt P45983); assay: AlphaScreen kinase assay, Jnk1; details: read-out: IC50, activity toward kinase Jnk1
T17 construct: purchased Upstate Biotechnology

[19] = target: T18, Zap70 (Homo sapiens, UniProt P43403); assay: AlphaScreen kinase assay, Zap70; details: read-out: IC50, activity toward kinase Zap70
T18 construct: P1868.pFastBac1 ZAP70 D327-G606 HIS, WT; His7 (HHHHHHH) (C); made in house
T18 sequence (P43403 with tags, fused parts or gaps): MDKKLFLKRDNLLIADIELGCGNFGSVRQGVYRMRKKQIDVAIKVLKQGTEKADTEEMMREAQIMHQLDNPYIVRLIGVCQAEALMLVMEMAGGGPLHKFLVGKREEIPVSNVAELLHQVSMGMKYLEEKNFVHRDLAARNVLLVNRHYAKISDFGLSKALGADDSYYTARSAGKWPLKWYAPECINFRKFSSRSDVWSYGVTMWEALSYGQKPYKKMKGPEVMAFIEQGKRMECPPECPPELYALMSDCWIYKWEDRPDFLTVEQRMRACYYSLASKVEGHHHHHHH
Method in brief: as §1

T9 sequence (P35968 20-1356): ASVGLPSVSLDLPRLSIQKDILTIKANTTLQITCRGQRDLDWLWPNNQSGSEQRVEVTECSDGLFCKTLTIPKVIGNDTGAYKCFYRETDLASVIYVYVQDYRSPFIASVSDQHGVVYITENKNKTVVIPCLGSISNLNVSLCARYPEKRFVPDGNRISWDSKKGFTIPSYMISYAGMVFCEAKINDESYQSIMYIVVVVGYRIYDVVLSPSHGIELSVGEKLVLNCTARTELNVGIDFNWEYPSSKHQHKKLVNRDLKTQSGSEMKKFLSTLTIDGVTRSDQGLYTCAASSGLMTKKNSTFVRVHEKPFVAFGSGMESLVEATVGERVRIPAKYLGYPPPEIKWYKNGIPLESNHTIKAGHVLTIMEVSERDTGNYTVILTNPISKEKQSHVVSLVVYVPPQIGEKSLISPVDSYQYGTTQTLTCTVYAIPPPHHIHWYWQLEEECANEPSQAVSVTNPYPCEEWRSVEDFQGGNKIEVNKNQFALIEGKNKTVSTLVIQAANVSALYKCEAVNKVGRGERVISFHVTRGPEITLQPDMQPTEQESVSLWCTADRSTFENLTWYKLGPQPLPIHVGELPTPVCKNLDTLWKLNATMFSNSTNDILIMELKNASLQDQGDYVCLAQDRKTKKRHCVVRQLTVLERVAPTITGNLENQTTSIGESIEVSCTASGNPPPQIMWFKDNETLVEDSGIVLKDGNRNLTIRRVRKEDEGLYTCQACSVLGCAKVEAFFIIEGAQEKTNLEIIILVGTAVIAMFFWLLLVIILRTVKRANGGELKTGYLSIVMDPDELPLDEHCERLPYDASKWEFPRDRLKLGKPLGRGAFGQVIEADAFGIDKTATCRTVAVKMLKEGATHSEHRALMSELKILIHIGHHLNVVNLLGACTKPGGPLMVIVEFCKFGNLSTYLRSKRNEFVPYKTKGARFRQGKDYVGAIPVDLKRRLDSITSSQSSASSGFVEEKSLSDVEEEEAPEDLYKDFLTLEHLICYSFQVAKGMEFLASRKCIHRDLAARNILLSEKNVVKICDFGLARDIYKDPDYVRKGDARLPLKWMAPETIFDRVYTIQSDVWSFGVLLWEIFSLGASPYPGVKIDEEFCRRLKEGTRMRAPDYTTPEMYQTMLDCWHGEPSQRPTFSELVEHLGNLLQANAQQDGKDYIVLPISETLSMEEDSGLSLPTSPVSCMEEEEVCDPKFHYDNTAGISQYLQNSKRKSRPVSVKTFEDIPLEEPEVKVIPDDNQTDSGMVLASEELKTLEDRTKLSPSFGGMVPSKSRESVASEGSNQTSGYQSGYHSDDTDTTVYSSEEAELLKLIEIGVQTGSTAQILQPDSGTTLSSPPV
T4 sequence (P11362 458-765 C488A/C584S): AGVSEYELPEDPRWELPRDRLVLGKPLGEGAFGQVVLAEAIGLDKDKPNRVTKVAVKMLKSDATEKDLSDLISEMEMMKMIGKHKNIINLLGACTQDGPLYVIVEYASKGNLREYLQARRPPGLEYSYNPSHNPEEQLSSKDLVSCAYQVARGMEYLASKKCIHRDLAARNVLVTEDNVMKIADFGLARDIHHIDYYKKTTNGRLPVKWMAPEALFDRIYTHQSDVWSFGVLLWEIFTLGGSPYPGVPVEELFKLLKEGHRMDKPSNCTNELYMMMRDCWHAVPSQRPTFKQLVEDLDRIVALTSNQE
T2 sequence (P10721 with tags, fused parts or gaps): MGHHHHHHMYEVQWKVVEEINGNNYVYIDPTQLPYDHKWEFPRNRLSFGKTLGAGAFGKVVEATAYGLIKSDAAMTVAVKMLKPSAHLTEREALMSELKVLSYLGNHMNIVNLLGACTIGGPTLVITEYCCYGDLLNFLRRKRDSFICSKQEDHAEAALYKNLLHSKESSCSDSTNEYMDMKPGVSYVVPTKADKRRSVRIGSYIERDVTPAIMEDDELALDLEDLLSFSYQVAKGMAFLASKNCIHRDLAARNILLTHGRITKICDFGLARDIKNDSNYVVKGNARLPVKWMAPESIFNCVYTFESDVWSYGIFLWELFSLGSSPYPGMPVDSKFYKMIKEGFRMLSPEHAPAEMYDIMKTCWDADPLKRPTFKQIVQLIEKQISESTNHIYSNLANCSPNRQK
T5 sequence (Q02750 whole entry): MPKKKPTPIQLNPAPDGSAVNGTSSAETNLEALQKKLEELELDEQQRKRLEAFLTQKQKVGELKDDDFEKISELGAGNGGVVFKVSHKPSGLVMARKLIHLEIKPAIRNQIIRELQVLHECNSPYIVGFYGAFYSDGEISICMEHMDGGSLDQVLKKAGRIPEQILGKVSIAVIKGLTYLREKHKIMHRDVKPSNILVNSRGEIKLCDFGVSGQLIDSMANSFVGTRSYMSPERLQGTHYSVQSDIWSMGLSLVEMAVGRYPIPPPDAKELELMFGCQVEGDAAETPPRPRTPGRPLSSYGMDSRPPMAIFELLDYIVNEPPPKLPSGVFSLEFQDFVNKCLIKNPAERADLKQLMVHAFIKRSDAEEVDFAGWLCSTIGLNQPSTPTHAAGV
MAP4K4, sequence (O95819 whole entry): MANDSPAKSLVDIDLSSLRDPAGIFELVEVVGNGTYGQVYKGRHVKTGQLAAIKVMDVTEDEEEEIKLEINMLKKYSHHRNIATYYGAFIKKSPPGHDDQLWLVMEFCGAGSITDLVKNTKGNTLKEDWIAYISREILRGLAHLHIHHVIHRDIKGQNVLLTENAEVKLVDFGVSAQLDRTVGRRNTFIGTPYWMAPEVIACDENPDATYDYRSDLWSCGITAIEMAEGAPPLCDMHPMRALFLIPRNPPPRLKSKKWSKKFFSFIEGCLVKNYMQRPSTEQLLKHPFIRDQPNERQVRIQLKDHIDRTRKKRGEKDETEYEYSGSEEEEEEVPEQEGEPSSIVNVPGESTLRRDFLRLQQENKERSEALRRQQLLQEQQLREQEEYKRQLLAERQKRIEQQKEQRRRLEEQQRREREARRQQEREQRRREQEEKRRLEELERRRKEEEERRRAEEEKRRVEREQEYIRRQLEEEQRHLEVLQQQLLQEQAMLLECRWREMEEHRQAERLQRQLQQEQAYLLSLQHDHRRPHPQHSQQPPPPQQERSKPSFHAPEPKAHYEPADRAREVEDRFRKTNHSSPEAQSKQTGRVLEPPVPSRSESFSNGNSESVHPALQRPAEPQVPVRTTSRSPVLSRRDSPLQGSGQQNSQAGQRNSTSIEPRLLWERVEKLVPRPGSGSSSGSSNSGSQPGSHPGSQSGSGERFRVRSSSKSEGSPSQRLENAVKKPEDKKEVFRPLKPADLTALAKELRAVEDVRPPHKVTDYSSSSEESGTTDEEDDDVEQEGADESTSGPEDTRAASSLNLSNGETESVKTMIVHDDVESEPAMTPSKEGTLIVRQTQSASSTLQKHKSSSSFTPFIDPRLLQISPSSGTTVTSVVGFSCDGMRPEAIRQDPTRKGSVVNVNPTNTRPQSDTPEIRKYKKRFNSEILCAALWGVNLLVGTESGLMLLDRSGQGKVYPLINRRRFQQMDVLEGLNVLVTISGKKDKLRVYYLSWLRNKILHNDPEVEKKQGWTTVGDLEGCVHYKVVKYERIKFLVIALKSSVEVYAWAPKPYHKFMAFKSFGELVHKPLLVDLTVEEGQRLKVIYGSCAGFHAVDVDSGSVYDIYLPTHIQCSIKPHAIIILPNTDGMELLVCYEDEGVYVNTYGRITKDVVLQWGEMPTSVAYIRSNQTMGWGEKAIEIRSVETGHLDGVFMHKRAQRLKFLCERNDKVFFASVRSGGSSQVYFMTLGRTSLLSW
T14 sequence (P35916 25-1363): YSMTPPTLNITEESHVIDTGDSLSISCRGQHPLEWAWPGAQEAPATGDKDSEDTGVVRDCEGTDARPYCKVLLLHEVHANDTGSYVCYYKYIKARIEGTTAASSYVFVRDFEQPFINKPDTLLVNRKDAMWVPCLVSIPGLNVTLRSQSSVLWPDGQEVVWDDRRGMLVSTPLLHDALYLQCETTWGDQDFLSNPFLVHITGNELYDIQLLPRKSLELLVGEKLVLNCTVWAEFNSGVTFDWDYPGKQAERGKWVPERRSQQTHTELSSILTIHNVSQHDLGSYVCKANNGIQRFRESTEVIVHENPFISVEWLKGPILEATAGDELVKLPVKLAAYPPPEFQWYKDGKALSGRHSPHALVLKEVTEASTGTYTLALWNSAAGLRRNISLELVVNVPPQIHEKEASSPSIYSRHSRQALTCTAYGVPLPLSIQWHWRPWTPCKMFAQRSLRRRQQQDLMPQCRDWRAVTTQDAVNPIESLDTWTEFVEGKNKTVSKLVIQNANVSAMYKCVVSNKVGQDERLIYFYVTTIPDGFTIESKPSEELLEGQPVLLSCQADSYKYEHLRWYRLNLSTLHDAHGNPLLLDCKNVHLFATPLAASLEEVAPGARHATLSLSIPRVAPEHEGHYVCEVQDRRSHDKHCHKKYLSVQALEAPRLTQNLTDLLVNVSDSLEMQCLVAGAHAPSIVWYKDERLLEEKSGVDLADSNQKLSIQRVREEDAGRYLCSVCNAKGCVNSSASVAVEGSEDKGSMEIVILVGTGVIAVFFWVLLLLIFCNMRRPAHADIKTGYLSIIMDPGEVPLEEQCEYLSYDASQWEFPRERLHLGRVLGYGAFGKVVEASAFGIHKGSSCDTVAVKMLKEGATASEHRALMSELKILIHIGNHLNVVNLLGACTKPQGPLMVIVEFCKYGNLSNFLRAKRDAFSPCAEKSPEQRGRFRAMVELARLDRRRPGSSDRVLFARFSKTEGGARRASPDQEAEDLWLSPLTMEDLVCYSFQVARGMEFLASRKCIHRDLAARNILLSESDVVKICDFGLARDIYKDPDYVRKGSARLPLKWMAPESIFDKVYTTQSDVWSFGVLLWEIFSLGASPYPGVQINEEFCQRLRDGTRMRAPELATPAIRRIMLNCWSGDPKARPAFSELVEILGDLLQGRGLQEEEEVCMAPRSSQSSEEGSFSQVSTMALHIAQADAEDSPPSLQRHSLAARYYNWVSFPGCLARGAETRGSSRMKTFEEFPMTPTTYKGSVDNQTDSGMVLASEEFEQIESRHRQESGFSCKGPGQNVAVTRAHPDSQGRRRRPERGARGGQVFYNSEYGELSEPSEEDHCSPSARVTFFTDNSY

SMILES	IC50 [2]	IC50 [3]	IC50 [4]	IC50 [5]	IC50 [10]	IC50 [12]	also measured
O=C(NCc1cccc(Cl)c1)NCc1c[nH]c2ncccc12 [Compound P-0568]				≤ 10 µM			
S=C(NCc1c[nH]c2ncccc12)Nc1cccc(Cl)c1 [Compound P-0337]				≤ 10 µM	≤ 10 µM	≤ 10 µM	
O=C1NCc2ccccc2N1Cc1c[nH]c2ncccc12 [Compound P-0194]				≤ 10 µM	≤ 10 µM	≤ 10 µM	
CS(=O)(=O)Nc1cccc(C(=O)c2c[nH]c3ncccc23)c1 [Compound P-0198]			≤ 10 µM	≤ 10 µM	≤ 10 µM		IC50 [6]: ≤ 10 µM

Now from value to compound, other results behind:

IC50 [2]	IC50 [3]	IC50 [4]	IC50 [5]	IC50 [10]	IC50 [12]	SMILES	also measured
≤ 10 µM	≤ 10 µM	≤ 10 µM	≤ 10 µM	≤ 10 µM		COc1ccc(C(=O)c2c[nH]c3ncccc23)c(Cl)c1 [Compound P-0152]	IC50 [1]: ≤ 10 µM; IC50 [6]: ≤ 10 µM; IC50 [7]: ≤ 10 µM; IC50 [8]: ≤ 10 µM; IC50 [9]: ≤ 10 µM; IC50 [11]: ≤ 10 µM
≤ 10 µM	≤ 10 µM	≤ 10 µM		≤ 10 µM		COc1cccc(Cc2c[nH]c3ncc(-c4cccs4)cc23)c1 [Compound P-0142]	IC50 [13]: ≤ 10 µM; IC50 [14]: ≤ 10 µM; IC50 [15]: ≤ 10 µM; IC50 [16]: ≤ 10 µM
≤ 10 µM	≤ 10 µM	≤ 10 µM		≤ 10 µM	≤ 10 µM	Nc1cccc(-c2cnc3[nH]cc(C(=O)c4ccccc4F)c3c2)c1 [Compound P-0624]	IC50 [17]: ≤ 10 µM; IC50 [14]: ≤ 10 µM; IC50 [15]: ≤ 10 µM; IC50 [18]: ≤ 10 µM; IC50 [7]: ≤ 10 µM; IC50 [19]: ≤ 10 µM; IC50 [11]: ≤ 10 µM
